In PMC5218480 (PLoS ONE, 2017):

System: MV-4-11 cells
Test: Gene expression microarray analysis (Affymetrix PrimeView) and GSEA
Type: cell-based, human
Set-up: RFU PODN (11730768_x_at) / Fold change /veh PODN (11730768_x_at) / RFU LINC00158 (11744669_a_at) / Fold change /veh LINC00158 (11744669_a_at) / RFU DUSP10 (11751237_a_at) / Fold change /veh DUSP10 (11751237_a_at) / RFU ID3 (11757404_x_at) / Fold change /veh ID3 (11757404_x_at) / RFU PLEKHG5 (11737974_s_at) / Fold change /veh PLEKHG5 (11737974_s_at) / RFU LRRC4B (11730491_at) / Fold change /veh LRRC4B (11730491_at) / RFU GIMAP4 (11747438_a_at) / Fold change /veh GIMAP4 (11747438_a_at) / RFU KRT8 (11758183_x_at) / Fold change /veh KRT8 (11758183_x_at) / RFU CNN1 (11734310_a_at) / Fold change /veh CNN1 (11734310_a_at) / RFU VPS37D (11726825_at) / Fold change /veh VPS37D (11726825_at) / RFU C10orf10 (11716522_x_at) / Fold change /veh C10orf10 (11716522_x_at) / RFU KIR2DL2 /// KIR2DL4 /// KIR2DL5A /// KIR2DL5B /// KIR2DS1 /// KIR2DS2 /// KIR2DS3 /// KIR2DS4 /// KIR3DL3 /// KIR3DL3 /// KIR3DS1 (11738374_at) / Fold change /veh KIR2DL2 /// KIR2DL4 /// KIR2DL5A /// KIR2DL5B /// KIR2DS1 /// KIR2DS2 /// KIR2DS3 /// KIR2DS4 /// KIR3DL3 /// KIR3DL3 /// KIR3DS1 (11738374_at) / RFU C1QL1 (11718748_at) / Fold change /veh C1QL1 (11718748_at) / RFU TMPRSS4 (11747572_a_at) / Fold change /veh TMPRSS4 (11747572_a_at) / RFU HAMP (11756126_x_at) / Fold change /veh HAMP (11756126_x_at) / RFU RNFT2 (11725882_a_at) / Fold change /veh RNFT2 (11725882_a_at) / RFU NR4A2 (11747474_a_at) / Fold change /veh NR4A2 (11747474_a_at) / RFU ABCC12 (11746883_a_at) / Fold change /veh ABCC12 (11746883_a_at) / RFU TMEM136 (11760407_x_at) / Fold change /veh TMEM136 (11760407_x_at) / RFU CLDN22 /// WWC2 (11732394_at) / Fold change /veh CLDN22 /// WWC2 (11732394_at) / RFU HLA-DPB1 (11760878_x_at) / Fold change /veh HLA-DPB1 (11760878_x_at) / RFU SPINT1 (11716480_a_at) / Fold change /veh SPINT1 (11716480_a_at) / RFU GAP43 (11754022_s_at) / Fold change /veh GAP43 (11754022_s_at) / RFU A4GNT (11735810_at) / Fold change /veh A4GNT (11735810_at) / RFU PRB3 (11715151_x_at) / Fold change /veh PRB3 (11715151_x_at) / RFU TUBB4B (11761932_at) / Fold change /veh TUBB4B (11761932_at) / RFU CAPN14 (11732068_a_at) / Fold change /veh CAPN14 (11732068_a_at) / RFU TMCC2 (11721928_a_at) / Fold change /veh TMCC2 (11721928_a_at) / RFU IRGQ (11745062_a_at) / Fold change /veh IRGQ (11745062_a_at) / RFU FAM174B (11720279_a_at) / Fold change /veh FAM174B (11720279_a_at) / RFU TMPRSS4 (11748680_a_at) / Fold change /veh TMPRSS4 (11748680_a_at) / RFU FAM212B (11763350_a_at) / Fold change /veh FAM212B (11763350_a_at) / RFU PLEKHG5 (11743358_a_at) / Fold change /veh PLEKHG5 (11743358_a_at) / RFU ZSCAN30 (11745921_a_at) / Fold change /veh ZSCAN30 (11745921_a_at) / RFU CMKLR1 (11741424_a_at) / Fold change /veh CMKLR1 (11741424_a_at) / RFU LOC101060620 /// MAPK8IP1 (11723275_at) / Fold change /veh LOC101060620 /// MAPK8IP1 (11723275_at) / RFU SPTSSB (11747773_x_at) / Fold change /veh SPTSSB (11747773_x_at) / RFU PRSS12 (11739890_at) / Fold change /veh PRSS12 (11739890_at) / RFU BIN1 (11741810_x_at) / Fold change /veh BIN1 (11741810_x_at) / RFU WNT11 (11732464_a_at) / Fold change /veh WNT11 (11732464_a_at) / RFU C10orf10 (11716521_a_at) / Fold change /veh C10orf10 (11716521_a_at) / RFU C5orf56 (11738089_at) / Fold change /veh C5orf56 (11738089_at) / RFU CYB561 (11721691_x_at) / Fold change /veh CYB561 (11721691_x_at) / RFU ANKRD19P (11752326_a_at) / Fold change /veh ANKRD19P (11752326_a_at) / RFU OR2T12 /// OR2T33 /// OR2T8 (11738714_s_at) / Fold change /veh OR2T12 /// OR2T33 /// OR2T8 (11738714_s_at) / RFU VCAN (11748164_a_at) / Fold change /veh VCAN (11748164_a_at) / RFU JSRP1 (11732532_at) / Fold change /veh JSRP1 (11732532_at) / RFU KRTAP10-11 (11738290_x_at) / Fold change /veh KRTAP10-11 (11738290_x_at) / RFU MYO3A (11730013_a_at) / Fold change /veh MYO3A (11730013_a_at) / RFU EBF3 (11725865_a_at) / Fold change /veh EBF3 (11725865_a_at) / RFU CAMK2N1 (11719241_x_at) / Fold change /veh CAMK2N1 (11719241_x_at) / RFU C5orf56 (11738088_a_at) / Fold change /veh C5orf56 (11738088_a_at) / RFU OLFML3 (11715873_a_at) / Fold change /veh OLFML3 (11715873_a_at) / RFU LOC100653217 /// NTM (11731650_a_at) / Fold change /veh LOC100653217 /// NTM (11731650_a_at) / RFU MAPK11 (11762145_a_at) / Fold change /veh MAPK11 (11762145_a_at) / RFU FIZ1 (11724087_x_at) / Fold change /veh FIZ1 (11724087_x_at) / RFU OASL (11726364_x_at) / Fold change /veh OASL (11726364_x_at) / RFU SOX15 (11748057_x_at) / Fold change /veh SOX15 (11748057_x_at) / RFU CD79A (11719716_a_at) / Fold change /veh CD79A (11719716_a_at) / RFU HIST1H1D (11736915_at) / Fold change /veh HIST1H1D (11736915_at) / RFU CASKIN2 (11723855_a_at) / Fold change /veh CASKIN2 (11723855_a_at) / RFU LOC730098 (11760151_x_at) / Fold change /veh LOC730098 (11760151_x_at) / RFU OR4N2 (11742367_at) / Fold change /veh OR4N2 (11742367_at) / RFU PRRT2 (11749266_a_at) / Fold change /veh PRRT2 (11749266_a_at) / RFU SNX32 (11753110_a_at) / Fold change /veh SNX32 (11753110_a_at) / RFU CDHR5 (11726645_a_at) / Fold change /veh CDHR5 (11726645_a_at) / RFU RCAN1 (11760418_a_at) / Fold change /veh RCAN1 (11760418_a_at) / RFU FAM167A (11723789_a_at) / Fold change /veh FAM167A (11723789_a_at) / RFU FAM26E (11764081_at) / Fold change /veh FAM26E (11764081_at) / RFU ISYNA1 (11749810_s_at) / Fold change /veh ISYNA1 (11749810_s_at) / RFU ACY1 (11761880_at) / Fold change /veh ACY1 (11761880_at) / RFU 11764098_at / Fold change /veh 11764098_at / RFU SAMD14 (11745864_x_at) / Fold change /veh SAMD14 (11745864_x_at) / RFU NPB (11741838_a_at) / Fold change /veh NPB (11741838_a_at) / RFU TMPRSS6 (11731388_a_at) / Fold change /veh TMPRSS6 (11731388_a_at) / RFU KRTAP10-2 (11738614_at) / Fold change /veh KRTAP10-2 (11738614_at) / RFU ARHGAP8 /// PRR5-ARHGAP8 (11727945_x_at) / Fold change /veh ARHGAP8 /// PRR5-ARHGAP8 (11727945_x_at) / RFU KRTAP5-7 /// NADSYN1 (11734609_at) / Fold change /veh KRTAP5-7 /// NADSYN1 (11734609_at) / RFU RASL12 (11751679_a_at) / Fold change /veh RASL12 (11751679_a_at) / RFU CDKN2B (11736163_a_at) / Fold change /veh CDKN2B (11736163_a_at) / RFU PRF1 (11729649_at) / Fold change /veh PRF1 (11729649_at) / RFU, ZNF638 /// ZNF638-IT1 / Fold change vs veh, ZNF638 /// ZNF638-IT1 / RFU, PANK3 / Fold change vs veh, PANK3 / RFU, SH3YL1 / Fold change vs veh, SH3YL1 / RFU, ZEB2 / Fold change vs veh, ZEB2 / RFU, NRIP1 / Fold change vs veh, NRIP1 / RFU, PTTG1IP / Fold change vs veh, PTTG1IP / RFU, CAPN2 / Fold change vs veh, CAPN2 / RFU, MED14 / Fold change vs veh, MED14 / RFU, SNORA58 / Fold change vs veh, SNORA58 / RFU, C1orf63 / Fold change vs veh, C1orf63 / RFU, LRRFIP1 / Fold change vs veh, LRRFIP1 / RFU, NDUFAF7 / Fold change vs veh, NDUFAF7 / RFU, SLC12A2 / Fold change vs veh, SLC12A2 / RFU, IBTK / Fold change vs veh, IBTK / RFU, ESF1 / Fold change vs veh, ESF1 / Fold change vs veh, TMEM50B / RFU, TAOK1 / Fold change vs veh, TAOK1 / RFU, ACBD3 / Fold change vs veh, ACBD3 / RFU, TMA16 / Fold change vs veh, TMA16 / RFU, RWDD3 / Fold change vs veh, RWDD3 / RFU, BCAT1 / Fold change vs veh, BCAT1 / RFU, EDEM3 / Fold change vs veh, EDEM3 / RFU, TMEM33 / Fold change vs veh, TMEM33 / RFU, WDR75 / Fold change vs veh, WDR75 / RFU, AHCTF1 / Fold change vs veh, AHCTF1 / RFU, TFRC / Fold change vs veh, TFRC / RFU, ZDHHC17 / Fold change vs veh, ZDHHC17 / RFU, NOM1 / Fold change vs veh, NOM1 / RFU, ARL8B / Fold change vs veh, ARL8B / RFU, ZBTB11 / Fold change vs veh, ZBTB11 / RFU, TAMM41 / Fold change vs veh, TAMM41 / RFU, KIAA1704 /// LOC100996395 / Fold change vs veh, KIAA1704 /// LOC100996395 / RFU, ING1 / Fold change vs veh, ING1 / RFU, TRMT61B / Fold change vs veh, TRMT61B / RFU, FUBP3 / Fold change vs veh, FUBP3 / RFU, TP53 / Fold change vs veh, TP53 / RFU, TNKS2 / Fold change vs veh, TNKS2 / RFU, ZFP14 / Fold change vs veh, ZFP14 / RFU, ACTR2 / Fold change vs veh, ACTR2 / RFU, PPP3R1 / Fold change vs veh, PPP3R1 / RFU, PIK3R1 / Fold change vs veh, PIK3R1 / RFU, HNRNPA1 / Fold change vs veh, HNRNPA1 / RFU, RNF170 / Fold change vs veh, RNF170 / RFU, ZNF28 / Fold change vs veh, ZNF28 / RFU, RNGTT / Fold change vs veh, RNGTT / RFU, OGT / Fold change vs veh, OGT / RFU, BRD1 / Fold change vs veh, BRD1 / RFU, MARS / Fold change vs veh, MARS / RFU, ZNF655 / Fold change vs veh, ZNF655 / RFU, FAHD1 / Fold change vs veh, FAHD1 / RFU, BDP1 / Fold change vs veh, BDP1 / RFU, LRRCC1 / Fold change vs veh, LRRCC1 / RFU, ARID1A / Fold change vs veh, ARID1A / RFU, ZNF146 / Fold change vs veh, ZNF146 / RFU, ZNF330 / Fold change vs veh, ZNF330 / RFU, GPN3 / Fold change vs veh, GPN3 / RFU, C9orf123 / Fold change vs veh, C9orf123 / RFU, N4BP2L2 / Fold change vs veh, N4BP2L2 / RFU, ARFIP1 / Fold change vs veh, ARFIP1 / RFU, FAM179B / Fold change vs veh, FAM179B / RFU, BCL10 / Fold change vs veh, BCL10 / RFU, UHRF1BP1L / Fold change vs veh, UHRF1BP1L / RFU, BET1 / Fold change vs veh, BET1 / RFU, CNOT2 / Fold change vs veh, CNOT2 / RFU, ZNF268 / Fold change vs veh, ZNF268 / Fold change vs veh, ZNF507 / RFU, DGCR2 / Fold change vs veh, DGCR2 / RFU, WDSUB1 / Fold change vs veh, WDSUB1 / Fold change vs veh, HSP90B1 /// MIR3652 / RFU, ADSS / Fold change vs veh, ADSS / RFU, GK / Fold change vs veh, GK / RFU, ZNF148 / Fold change vs veh, ZNF148 / RFU, TAF9 / Fold change vs veh, TAF9 / RFU, SLC1A5 / Fold change vs veh, SLC1A5 / RFU, SLMO2 / Fold change vs veh, SLMO2 / RFU, ABCC4 / Fold change vs veh, ABCC4 / RFU, LOC101060439 /// RAP1B / Fold change vs veh, LOC101060439 /// RAP1B / RFU, RFX7 / Fold change vs veh, RFX7 / RFU, GTPBP10 / Fold change vs veh, GTPBP10 / RFU, CNEP1R1 / Fold change vs veh, CNEP1R1 / RFU, BIVM-ERCC5 /// ERCC5 / Fold change vs veh, BIVM-ERCC5 /// ERCC5 / RFU, ILF3 / Fold change vs veh, ILF3 / RFU 11762660_at / Fold change /veh 11762660_at / RFU VCAN (11757783_s_at) / Fold change /veh VCAN (11757783_s_at) / RFU DDX43 (11728927_at) / Fold change /veh DDX43 (11728927_at) / RFU KRT8 (11758188_x_at) / Fold change /veh KRT8 (11758188_x_at) / RFU NKD1 (11759106_at) / Fold change /veh NKD1 (11759106_at) / RFU SRD5A1 (11742802_a_at) / Fold change /veh SRD5A1 (11742802_a_at) / RFU TPSAB1 /// TPSB2 (11721975_s_at) / Fold change /veh TPSAB1 /// TPSB2 (11721975_s_at) / RFU GSTM3 (11746129_a_at) / Fold change /veh GSTM3 (11746129_a_at) / RFU IL23R (11737362_x_at) / Fold change /veh IL23R (11737362_x_at) / RFU TMEM51 (11727254_a_at) / Fold change /veh TMEM51 (11727254_a_at) / RFU PIWIL2 (11732686_x_at) / Fold change /veh PIWIL2 (11732686_x_at) / RFU ORM1 (11744905_x_at) / Fold change /veh ORM1 (11744905_x_at) / RFU CCDC152 (11743942_at) / Fold change /veh CCDC152 (11743942_at) / RFU ECM1 (11717891_a_at) / Fold change /veh ECM1 (11717891_a_at) / RFU IL23R (11748794_a_at) / Fold change /veh IL23R (11748794_a_at) / RFU TNFAIP8L3 (11732012_x_at) / Fold change /veh TNFAIP8L3 (11732012_x_at) / RFU MBOAT4 (11741988_at) / Fold change /veh MBOAT4 (11741988_at) / RFU 11764193_at / Fold change /veh 11764193_at / RFU TMEM53 (11763286_at) / Fold change /veh TMEM53 (11763286_at) / RFU MAGEB2 (11727129_at) / Fold change /veh MAGEB2 (11727129_at) / RFU TMEM200A (11744735_a_at) / Fold change /veh TMEM200A (11744735_a_at) / RFU CCDC152 (11751479_a_at) / Fold change /veh CCDC152 (11751479_a_at) / RFU FAM211A (11726209_a_at) / Fold change /veh FAM211A (11726209_a_at) / RFU RGS16 (11746705_a_at) / Fold change /veh RGS16 (11746705_a_at) / RFU VCAN (11755009_s_at) / Fold change /veh VCAN (11755009_s_at) / RFU RHOB (11743442_s_at) / Fold change /veh RHOB (11743442_s_at) / RFU RGS16 (11720943_a_at) / Fold change /veh RGS16 (11720943_a_at) / RFU RGS16 (11720944_at) / Fold change /veh RGS16 (11720944_at) / RFU, VPS4B / Fold change vs veh, VPS4B / RFU, CREB1 / Fold change vs veh, CREB1 / RFU, DNAJC13 / Fold change vs veh, DNAJC13 / RFU, GNAQ / Fold change vs veh, GNAQ / RFU, CDK5R1 / Fold change vs veh, CDK5R1 / RFU, ZRANB3 / Fold change vs veh, ZRANB3 / RFU, CUL4A / Fold change vs veh, CUL4A / RFU, CCNY / Fold change vs veh, CCNY / RFU, UFL1 / Fold change vs veh, UFL1 / RFU, COG3 / Fold change vs veh, COG3 / RFU, DIAPH2 / Fold change vs veh, DIAPH2 / RFU, SKA2 / Fold change vs veh, SKA2 / RFU, AFF3 / Fold change vs veh, AFF3 / RFU, LMF1 / Fold change vs veh, LMF1 / RFU, IPO11 / Fold change vs veh, IPO11 / RFU, DFFB / Fold change vs veh, DFFB / RFU, FOXP1 / Fold change vs veh, FOXP1 / RFU, CARD8 / Fold change vs veh, CARD8 / RFU, STRN3 / Fold change vs veh, STRN3 / RFU, ADK / Fold change vs veh, ADK / RFU, RASSF2 / Fold change vs veh, RASSF2 / RFU, WIPF1 / Fold change vs veh, WIPF1 / RFU, LARP1B / Fold change vs veh, LARP1B / RFU, RASA1 / Fold change vs veh, RASA1 / RFU, RB1 / Fold change vs veh, RB1 / RFU, PPFIA1 / Fold change vs veh, PPFIA1 / RFU, MAT2A / Fold change vs veh, MAT2A / RFU, CCT5 / Fold change vs veh, CCT5 / RFU, WDR92 / Fold change vs veh, WDR92 / RFU, CUX1 / Fold change vs veh, CUX1 / RFU, TTC7A / Fold change vs veh, TTC7A / RFU, TMEM135 / Fold change vs veh, TMEM135 / RFU, DEPTOR / Fold change vs veh, DEPTOR / RFU, CPM / Fold change vs veh, CPM / RFU, DNAJB6 / Fold change vs veh, DNAJB6 / RFU, CACNA2D3 / Fold change vs veh, CACNA2D3 / RFU, DTX4 / Fold change vs veh, DTX4 / RFU, TFCP2 / Fold change vs veh, TFCP2 / RFU, GMCL1 /// GMCL1P1 / Fold change vs veh, GMCL1 /// GMCL1P1 / RFU, AEBP2 / Fold change vs veh, AEBP2 / RFU, SNHG1 /// SNORD22 /// SNORD25 /// SNORD26 /// SNORD27 /// SNORD28 /// SNORD29 /// SNORD31 / Fold change vs veh, SNHG1 /// SNORD22 /// SNORD25 /// SNORD26 /// SNORD27 /// SNORD28 /// SNORD29 /// SNORD31 / Fold change (Aza/veh), C12orf56 (ProbeSet 11735607_a_at) / Fold change (ACY-1035/veh), C12orf56 (ProbeSet 11735607_a_at) / Fold change (Aza/veh), FGFR1OP (ProbeSet 11751329_s_at) / Fold change (ACY-1035/veh), FGFR1OP (ProbeSet 11751329_s_at) / Fold change (Aza/veh), VPS36 (ProbeSet 11739960_a_at) / Fold change (ACY-1035/veh), VPS36 (ProbeSet 11739960_a_at) / RFU SYPL1 (11715823_x_at) / Fold change /veh SYPL1 (11715823_x_at) / RFU IGFBP7 (11715501_s_at) / Fold change /veh IGFBP7 (11715501_s_at) / RFU REEP3 (11722064_at) / Fold change /veh REEP3 (11722064_at) / RFU IGLL1 (11728026_x_at) / Fold change /veh IGLL1 (11728026_x_at): dose or concentration left out as unconfirmed
Settings: MV-4-11 cells, 48 hours

Nc1ncn([C@@H]2O[C@H](CO)[C@@H](O)[C@H]2O)c(=O)n1 [azacitidine]
Fold change /veh ACY1 (11761880_at): 1.09
